In patent publication US7598028B2, “Compositions and methods for detecting and treating prostate disorders” (The Regents of the University of Michigan, priority 2006, dated 2009):

What was measured:
EGR1 gene transcript = test: Quantitative real-time PCR, EGR1 in LNCaP cells; assay type: cell-based, human
Method: Quantitative Real-Time PCR. All quantitative real-time assays were conducted with an Applied Biosystems 7900HT instrument and reagents. Cells were grown to 70% confluence in […] dishes prior to RNA purification using the Trizol reagent (Invitrogen Life Technologies). Experiments utilizing U0126 were performed as above, except that cells were treated with DMSO (vehicle) or 5 uM U0126 for 2 hours, then grown in the presence or absence of CXCL12. For all experiments, one microgram of RNA was reverse transcribed by use of Superscript III reverse transcriptase (Invitrogen, Carlsbad, Calif.). The resulting cDNA was diluted 1:100. Real-time PCR was performed by use of Assays on Demand (Applied BioSystems, Foster City, Calif.) according to the manufacturer's instructions, except that Real Time Ready with Rox passive dye (QBioGene, Carlsbad, Calif.) was used in place of TaqMan Universal PCR Master Mix. […] Cycle numbers to threshold were calculated by subtracting averaged control from averaged experimental values, and Fold Gene Expression was calculated by raising […]. […]
Quantitative Real-Time PCR. All quantitative real-time assays were conducted as previously described with an Applied Biosystems 7900HT instrument and reagents (see, e.g., Begley L A, et al., J Biol. Chem. 2007 Sep. 14; 282(37):26767-74; herein incorporated by reference in its entirety). […]

ERK ½ = test: Western blot, ERK phosphorylation in N15C6 cells; assay type: cell-based, human
Method: Western blot analysis Cells were lysed, proteins resolved by electrophoresis and electroblotting was carried out as described previously (Chaib H, et al., (2001) Cancer Res. 61, 2390-2394; incorporated herein by reference in its entirety). Proteins were detected using antibodies against phospho-ERK½ (Cell Signaling no. 9101), total ERK½ (Cell Signaling, no. 9102), CXCR4 (Abcam no. ab2074), CXCR7 (Abcam #Ab12870, Abcam #Ab12871, Abcam #38089), phospho-p65 (Rockland no. 100-401-264), total p65 (Rockland no. 100-4165), or beta-actin (Santa Cruz no. sc-1615), in conjunction with an ECL detection system.
Western Blot Analysis. Cells were lysed, proteins resolved by electrophoresis, and electroblotting was carried out as described previously (see, e.g.; Chaib H, et al., 2001 Cancer Res. 61, 2390-2394; incorporated herein by reference in its entirety). Proteins were detected using antibodies against phospho-ERK½ (Cell Signaling #9101), total ERK½ (Cell Signaling #9102), CXCR4 (Abcam #ab2074), Elk-1 (Cell Signaling #9182), Phospho Elk-1 (Cell Signaling #9181), or beta-actin (Santa Cruz #sc-1615), in conjunction with an ECL detection system.
Western Blot and Protein Analysis. Cells were lysed, proteins resolved by electrophoresis, and electroblotting was carried out as described previously except that 20 ug protein was electrophoresed per gel lane for N15C6 cells and 100 ug protein for LNCaP cells (see, e.g., Begley L, et al., Aging Cell. 2005 December; 4(6):291-8; Begley L A, et al., J Biol. Chem. 2007 Sep. 14; 282(37):26767-74; each herein incorporated by reference in their entireties). Proteins were detected using antibodies against phospho-ERK½ (Cell Signaling #9101), total ERK½ (Cell Signaling, #9102), phospho-p65, (Rockland #100-401-264), total p65 (Rockland #100-4165), STAT3 (9139), phospho-STAT3 (9138), beta-actin (Santa Cruz #sc-1615), or tubulin (Upstate, #DM1A) in conjunction with an ECL detection system. Secondary antibodies included goat anti-rabbit (Cell Signaling, #7074) and goat anti-mouse (Santa Cruz, #SC-2005), and both were used at a 1:5000 concentration. Immunoblots shown are representative of triplicate experiments. Densitometric quantitation of immunoblot films was accomplished by scanning the original films and converting the .tiff files to grayscale. Images were inverted, and mean band intensities were measured using ImageJ (www, followed by, .nih.gov). The mean intensity of adjacent background was also measured for each band and subtracted from band intensity.

Molecule | EGR1 transcript versus vehicle-treated cells (EGR1 gene transcript; only at the lowest CXCL5 concentration (10 pM) tested) | ERK ½ phosphorylation (ERK ½; 10 pM, 100 pM or 1 nM CXCL5) | effect on CXCL12-stimulated EGR1 gene transcription (EGR1 gene transcript; 5 uM U0126 for 2 hours, then 50 pM CXCL12) | effect on CXCL12-stimulated ERK ½ phosphorylation (ERK ½; 0.1 uM or 1.0 uM U0126, 1 pM CXCL12) | effect on CXCL12-stimulated ERK ½ phosphorylation (ERK ½; 1 uM U0126 pre-treatment, 10 pM or 1000 pM CXCL12) | effect on CXCL12-stimulated ERK phosphorylation (ERK ½; 1.0 uM or 5.0 uM U0126, 1 pM, 10 pM or 1000 pM CXCL12) | effect on CXCL12-stimulated ERK ½ phosphorylation (ERK ½; 5 uM U0126 pre-treatment, 10 pM or 1000 pM CXCL12)
CXCL5: recombinant human CXCL5 (R&D Systems, 254-X), CXC-type chemokine | 2- to 3 fold | rapidly and transiently phosphorylated |  |  |  |  | 
N#CC(=C(/N)Sc1ccccc1N)/C(C#N)=C(\N)Sc1ccccc1N [U0126] |  |  | ablates | diminished | reduces | greatly diminishes | ablates
